# Laboratory results reported in PMC7619385 (ACS infectious diseases, 2025).
# Like-named read-outs stand apart in the source and are kept apart here.
# Legend:
# [1] = system: L. mexicana promastigotes; assay: Promastigote viability (Alamar Blue/resazurin); type: cell-based; details: Leishmania mexicana
# Procedure: Next, we evaluated GZD824 ability to reduce the viability of L. mexicana promastigotes by monitoring the reduction of resazurin (Alamar Blue).[31]
# (§1) L. mexicana (strain MNYC/BZ/62/M379) promastigotes were cultivated in medium 199 (M199) (Earle’s Salts - Gibco) supplemented with 10% (v/v) heat-inactivated fetal calf serum (HIFCS – Cultilab) and 1% Penicillin/Streptomycin solution (Sigma-Aldrich) at 26 °C. Phenotypic drug response assays in null mutant and point-mutation mutant lines were performed in HOMEM supplemented with 10% (v/v) heat-inactivated fetal calf serum (HIFCS – Gibco). THP-1 monocytes were differentiated in adherent macrophages with 50 ng of PMA for 72 h at 37 °C and 5% CO2 before infection with stationary phase promastigotes (ratio 10 promastigotes:1 macrophage) for 6 h, followed by washing to remove non-internalized Leishmania. Infected macrophages were incubated at 34 °C and 5% CO2 for 48 h in RPMI (Gibco) supplemented with 10% HIFCS and 1% Penicillin/Streptomycin solution.
# For evaluation of drug effect on promastigote and uninfected macrophage viability, cells were cultivated in the presence of test compounds for 24 h and incubated with 10% AlamarBlue™ Cell Viability Reagent (ThermoFisher) for 24 h before measuring fluorescence at λex 540 nm/λem 590 nm. Untreated cells (1% DMSO) were set as 100 % viable cells. Intracellular amastigotes were treated with compounds for 48 h. Slides with paraformaldehyde-fixed and DAPI-stained cells were imaged on a Zeiss AxioImager microscope – at least 200 macrophages per drug concentration and DMSO control. Experiments were performed in duplicate. The total number of amastigotes was normalized by the number of macrophages counted. For EC50 determination, the data was fitted to the sigmoidal dose-response (variable slope) equation in GraphPad Prism (v.9.1.0).
# NLuc::LmxCLK1 = NLuc::LmxCLK1 (Leishmania mexicana, UniProt E9AMP2); assay: In-cell BRET target engagement in intracellular amastigotes expressing NLuc::LmxCLK1; type: cell-based
# Sequence of NLuc::LmxCLK1 (E9AMP2 entry or part of it): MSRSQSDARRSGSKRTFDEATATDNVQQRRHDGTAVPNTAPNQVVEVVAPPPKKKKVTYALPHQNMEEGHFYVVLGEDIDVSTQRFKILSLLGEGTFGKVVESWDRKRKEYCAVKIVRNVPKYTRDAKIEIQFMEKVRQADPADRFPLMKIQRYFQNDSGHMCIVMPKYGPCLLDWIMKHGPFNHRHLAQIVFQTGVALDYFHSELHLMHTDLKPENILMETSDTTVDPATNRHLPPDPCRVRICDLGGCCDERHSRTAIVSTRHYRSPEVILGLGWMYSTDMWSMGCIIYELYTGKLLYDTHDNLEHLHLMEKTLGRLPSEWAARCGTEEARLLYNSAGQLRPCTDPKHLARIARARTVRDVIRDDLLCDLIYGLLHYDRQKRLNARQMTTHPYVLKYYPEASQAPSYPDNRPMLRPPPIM
# Procedure: as §1
# in vitro BRET used purified NLuc-LmxCLK1 in Kinase Buffer (50 mM HEPES, 1 mM EGTA, 10 mM MgCl^2, 2 mM DTT and 0.01% Tween-20) aliquoted into 96-well plates (Greiner #655904). In cell BRET assays used engineered L. mexicana (promastigotes or intramacrophage amastigotes) expressing NLuc-LmxCLK1 in cell media aliquoted into 96-well plates (Greiner, #655083). For tracer titration experiments, BRET probes were serially diluted from 100% DMSO stocks – first in 100% DMSO to 100x final assay concentration, and then in Tracer Dilution Buffer (TDB - 12.5 mM HEPES, pH 7.5; 31.25% PEG 400) to 20x the final assay concentration. Serially diluted probes (5 µL) were added to 85 µL of cells in culture media or 85 µL of purified protein. Final well volumes were adjusted to 100 µL with sterile Opti-MEM™ I Reduced Serum Medium (Thermo-Scientific) – for wells containing cells; or Kinase Buffer - for wells containing purified protein. For tracer displacement assays, samples were prepared as above, but final volume was brought to 100 µL by addition of vehicle or serially-diluted test compounds. Final DMSO concentration in these assays was 1%. Plates were incubated for 30 min at 25 °C (purified protein and promastigotes) or 34 °C (intramacrophage amastigotes), and 50 µL of Promega cocktail containing furimazine and NLuc extracellular inhibitor (catalog #N2161) were added to each well. Light emissions at 460+10 nm (BRET donor) and at 610+20 nm (BRET acceptor) were sequentially recorded (integration time = 0.5 s, gain = 3600) using a luminometer (BMG LABTECH Clariostar or Biotek Synergy HT). BRET values are reported in milli-BRET (mBRET) units (mBU), obtained by dividing the acceptor luminescence by the donor luminescence and multiplying the result by a factor of 1,000. BRET values were converted to blank-corrected probe occupancies (%) according to equation [1]: (1) Probeoccupancy(%)=X−Z/Y−Z×100 where X = mBRET value in the presence of the test compound and the probe, Y = mBRET value in the presence of probe only, and Z = mBRET value in the absence of probe and test compound.
# [2] = 48 h compound exposure, read-out: EC50 promastigote viability
Compound,"EC50 [1, 2]",IC50 (NLuc::LmxCLK1),"Lower potency in intracellular amastigotes (NLuc::LmxCLK1; tracer displacement, versus promastigotes)","EC50 ([1]; wild-type comparator of the overexpression experiment (Figure 6D), read-out: EC50 wild-type parasites)"
Cc1ccc(C(=O)Nc2ccc(CN3CCN(C)CC3)c(C(F)(F)F)c2)cc1C#Cc1cnc2[nH]ncc2c1 [GZD824],33 µM,13 µM,~ 3 fold,
C=CC(=O)Nc1cccc(Sc2nc(Nc3ccc(N4CCN(C)CC4)cc3)ncc2Cl)c1 [WZ8040],7.9 µM,7 µM,,5.6 µM
